# Data taken from patent publication US11286236B2, “Compound, agent and composition for the suppression of cancer growth” (Vector Vitale IP LLC, priority 2018, dated 2022).
# Tests used:
# [1] = system: Mouse melanoma cells (MM-4 cell line); assay: Cytotoxic effect of E2+85Rbe and antitumor drug added 24 hours apart; format: cell-based
# Description: The effectiveness of the method of the invention that comprises administering antitumor drugs and ^85Rb-enriched rubidium salt of N-benzoyl-N-(4-toluenesulfonyl)-o-phenylenediamine of formula I was measured in the experiment. […] Both orders were tested: AD administered first (Scheme 2, below), and AD administered second (Scheme 1, below).
# Materials and Methods: Mouse melanoma cells (MM-4 cell line) were seeded into 96-well plates (TPP, Italy), in DMEM (Biowest, France) supplemented with 10% newborn calf serum (Biowest, France) and […] gentamicin (Sigma, USA) at a seeding density of 5×10^4 cells/ml. The cells were then cultured in an incubator with a humidified atmosphere of 5% CO2 in air at 37° C. The experiment was carried out in accordance with the three schemes given below. The experiment was started 24 hours after the cells were seeded. For this purpose, the agents used in the method were introduced into the appropriate wells. The following schemes of introduction were used for the study:
# Scheme 1) The ^85Rb-enriched rubidium salt of N-benzoyl-N′-(4-toluenesulfonyl)-o-phenylenediamine of formula I was introduced at the first stage in the following amounts: 2.0 μg/ml, 1.0 μg/ml, 0, 5 μg/ml, and one antitumor drug was introduced at the second stage (after 24 hours).
# Scheme 2) An AD was introduced at the first stage at doses as indicated in Scheme 1 above and ^85Rb-enriched rubidium salt of N-benzoyl-N′-(4-toluenesulfonyl)-o-phenylenediamine of formula I was introduced at the second stage (after 24 hours) at the following doses: 2.0 μg/ml, 1.0 μg/ml, 0.5 μg/ml.
# After all the agents were added into the wells, the cells were incubated at 37° C. and 5% CO2 for another 72 hours (96 hours in total after the cells were seeded).
# As in example 2, the cytotoxic effect was determined as the percentage of the cell number with respect to the control after their treatment in accordance with the claimed method. The effects of the drugs were evaluated visually, which allowed us to examine the morphological pattern of the cytotoxic action of the drugs, and by staining the cells with crystal violet, followed by OD measurement at an excitation wavelength of 540 nm using a MultiSkan microplate spectrophotometer.
# The effects of the complex action of various doses of the investigated substances were evaluated using the concept of synergistic, additive and antagonistic effects of the drugs, as for Example 2, and calculating CI as described in Example 2.
# Each table sets forth the % of MM-4 cells that survived in the presence of the drug doses indicated in the in vitro experiments described above, expressed as a percentage of the cells in the control wells.
# [2] = system: Mouse B16 melanoma cells (MM-4 cell line); assay: Cytotoxic/cytostatic activity of E2+85Rbe and antitumor drug added simultaneously; format: cell-based
# Description: The effects of the complex action of various doses of the investigated substances were evaluated using the concept of synergistic, additive and antagonistic effects of the drugs. The mathematics are detailed below. […] The effects were calculated using the Chou-Talalay method according to the following equation (“CI” refers to the “combination index”) (see T.-C. […] Where both the ^85Rb-enriched rubidium salt (referred to as “E2+^85Rbe”) and an AD were administered, they were administered simultaneously.
compound,measurement,setting,value
CN(C)/N=N/c1[nH]cnc1C(N)=O [dacarbazine],% surviving MM-4 cells,"[1]; dacarbazine 2.5 μg/ml alone, first stage",21 ± 2.4%
same,% surviving MM-4 cells,"[1]; dacarbazine 2.5 μg/ml alone, second stage",40.7 ± 0.7%
same,% surviving MM-4 cells,"[1]; dacarbazine 5 μg/ml alone, first stage",18.1 ± 0.2%
same,% surviving MM-4 cells,"[1]; dacarbazine 5 μg/ml alone, second stage",30 ± 2.4%
same,% surviving MM-4 cells,"[1]; dacarbazine 10 μg/ml alone, first stage",11.6 ± 3%
same,% surviving MM-4 cells,"[1]; dacarbazine 10 μg/ml alone, second stage",19 ± 4%
same,% surviving MM-4 cells,"[1]; dacarbazine 20 μg/ml alone, first stage",7.8 ± 0.5%
same,% surviving MM-4 cells,"[1]; dacarbazine 20 μg/ml alone, second stage",12.9 ± 2.9%
same,% surviving MM-4 cells,"[1]; dacarbazine 40 μg/ml alone, first stage",3.5 ± 0.7%
same,% surviving MM-4 cells,"[1]; dacarbazine 40 μg/ml alone, second stage",8.4 ± 1.2%
same,% surviving MM-4 cells,[2]; dacarbazine 2.5 μg/ml alone,21 ± 2.4%
same,% surviving MM-4 cells,[2]; dacarbazine 5 μg/ml alone,18.1 ± 0.2%
same,% surviving MM-4 cells,[2]; dacarbazine 10 μg/ml alone,11.6 ± 3%
same,% surviving MM-4 cells,[2]; dacarbazine 20 μg/ml alone,7.8 ± 0.5%
same,% surviving MM-4 cells,[2]; dacarbazine 40 μg/ml alone,3.5 ± 0.7%
CCC1=C[C@@H]2CN(C1)Cc1c([nH]c3ccccc13)[C@@](C(=O)OC)(c1cc3c(cc1OC)N(C)[C@H]1[C@@](O)(C(=O)OC)[C@H](OC(C)=O)[C@]4(CC)C=CCN5CC[C@]31[C@@H]54)C2 [vinorelbine],% surviving MM-4 cells,"[1]; vinorelbine 1 ng/ml alone, first stage",10 ± 0.1%
same,% surviving MM-4 cells,"[1]; vinorelbine 1 ng/ml alone, second stage",26 ± 2.5%
same,% surviving MM-4 cells,"[1]; vinorelbine 5 ng/ml alone, first stage",9.5 ± 0.5%
same,% surviving MM-4 cells,"[1]; vinorelbine 5 ng/ml alone, second stage",17.9 ± 0.9%
same,% surviving MM-4 cells,"[1]; vinorelbine 25 ng/ml alone, first stage",2 ± 0.8%
same,% surviving MM-4 cells,"[1]; vinorelbine 25 ng/ml alone, second stage",7.9 ± 0.5%
same,% surviving MM-4 cells,"[1]; vinorelbine 50 ng/ml alone, first stage",2 ± 1%
same,% surviving MM-4 cells,"[1]; vinorelbine 50 ng/ml alone, second stage",6.4 ± 0.4%
same,% surviving MM-4 cells,"[1]; vinorelbine 200 ng/ml alone, first stage",1%
same,% surviving MM-4 cells,"[1]; vinorelbine 200 ng/ml alone, second stage",5.6 ± 0.6%
same,% surviving MM-4 cells,[2]; vinorelbine 1 ng/ml alone,10 ± 0.1%
same,% surviving MM-4 cells,[2]; vinorelbine 5 ng/ml alone,9.5 ± 0.5%
same,% surviving MM-4 cells,[2]; vinorelbine 25 ng/ml alone,2 ± 0.8%
same,% surviving MM-4 cells,[2]; vinorelbine 50 ng/ml alone,2 ± 1%
same,% surviving MM-4 cells,[2]; vinorelbine 200 ng/ml alone,1%
CC(=O)O[C@H]1C(=O)[C@@]2(C)[C@H]([C@H](OC(=O)c3ccccc3)[C@]3(O)C[C@H](OC(=O)[C@H](O)[C@@H](NC(=O)c4ccccc4)c4ccccc4)C(C)=C1C3(C)C)[C@]1(OC(C)=O)CO[C@@H]1C[C@@H]2O [paclitaxel],% surviving MM-4 cells,"[1]; paclitaxel 3 ng/ml alone, first stage",80 ± 2.3%
same,% surviving MM-4 cells,"[1]; paclitaxel 3 ng/ml alone, second stage",87.7 ± 6.7%
same,% surviving MM-4 cells,"[1]; paclitaxel 7.5 ng/ml alone, first stage",33.4 ± 1.4%
same,% surviving MM-4 cells,"[1]; paclitaxel 7.5 ng/ml alone, second stage",49 ± 1%
same,% surviving MM-4 cells,"[1]; paclitaxel 15 ng/ml alone, second stage",37 ± 4.5%
same,% surviving MM-4 cells,"[1]; paclitaxel 30 ng/ml alone, first stage",7 ± 0.8%
same,% surviving MM-4 cells,"[1]; paclitaxel 30 ng/ml alone, second stage",29.2 ± 4.4%
same,% surviving MM-4 cells,"[1]; paclitaxel 3 μg/ml alone, first stage",1.9 ± 0.2%
same,% surviving MM-4 cells,[2]; paclitaxel 3 ng/ml alone,80 ± 2.3%
same,% surviving MM-4 cells,[2]; paclitaxel 7.5 ng/ml alone,33.4 ± 1.4%
same,% surviving MM-4 cells,[2]; paclitaxel 30 ng/ml alone,7 ± 0.8%
same,% surviving MM-4 cells,[2]; paclitaxel 3 μg/ml alone,1.9 ± 0.2%
COc1cccc2c1C(=O)c1c(O)c3c(c(O)c1C2=O)C[C@@](O)(C(=O)CO)C[C@@H]3O[C@H]1C[C@H](N)[C@H](O)[C@H](C)O1 [doxorubicin],% surviving MM-4 cells,"[1]; doxorubicin 150 ng/ml alone, first stage",14.4 ± 1.1%
same,% surviving MM-4 cells,"[1]; doxorubicin 150 ng/ml alone, second stage",35.5 ± 0.8%
same,% surviving MM-4 cells,"[1]; doxorubicin 175 ng/ml alone, first stage",13 ± 0.1%
same,% surviving MM-4 cells,"[1]; doxorubicin 200 ng/ml alone, first stage",9.1 ± 1.1%
same,% surviving MM-4 cells,"[1]; doxorubicin 200 ng/ml alone, second stage",24.8 ± 5.5%
same,% surviving MM-4 cells,"[1]; doxorubicin 300 ng/ml alone, first stage",3.1 ± 0.1%
same,% surviving MM-4 cells,"[1]; doxorubicin 300 ng/ml alone, second stage",12.2 ± 0.5%
same,% surviving MM-4 cells,"[1]; doxorubicin 500 ng/ml alone, first stage",0%
same,% surviving MM-4 cells,"[1]; doxorubicin 500 ng/ml alone, second stage",5.3 ± 0.9%
same,% surviving MM-4 cells,[2]; doxorubicin 150 ng/ml alone,14.4 ± 1.1%
same,% surviving MM-4 cells,[2]; doxorubicin 175 ng/ml alone,13 ± 0.1%
same,% surviving MM-4 cells,[2]; doxorubicin 200 ng/ml alone,9.1 ± 1.1%
same,% surviving MM-4 cells,[2]; doxorubicin 300 ng/ml alone,3.1 ± 0.1%
same,% surviving MM-4 cells,[2]; doxorubicin 500 ng/ml alone,0%
